Test results published in patent US9388208B2, “Pyrrolo[1,2-f][1,2,4]triazines useful for treating respiratory syncitial virus infections” (Gilead Sciences, Inc., priority 2013, dated 2016).
Where two headings read alike, the source gives them in different places.

Columns and labels:
[1] = target: T1, RSV ribonucleoprotein (RNP) complexes (Human respiratory syncytial virus A, UniProt P28887); assay: RSV RNP assay (inhibition of RSV RNP transcription); type: biochemical, RSV A2; conditions: 90 minute incubation at 30° C., total radiolabeled transcripts
T1 construct: The supernatant (S3) fraction, containing the enriched RSV RNP complexes, was collected; endogenous in cells; host or cells: HEp-2 cells infected with RSV A2; detergent-extracted crude S3 fraction
Procedure: RSV ribonucleoprotein (RNP) complexes were prepared from a method modified from Mason at al (1). HEp-2 cells were plated at a density of 7.1×10^4 cells/cm^2 in MEM+10% fetal bovine serum (FBS) and allowed to attach overnight at 37° C. (5% CO2). Following attachment, the cells were infected with RSV A2 (M01=5) in 35 mL MEM+2% FBS. At 20 hours post-infection, the media was replaced with MEM+2% FBS supplemented with 2 μg/mL actinomycin D and returned to 37° C. for one hour. The cells were then washed once with PBS and treated with 35 mL of PBS+250 μg/mL lyso-lecithin for one minute, after which all liquid was aspirated. The cells were harvested by scrapping them into 1.2 mL of buffer A [50 mM TRIS acetate (pH 8.0), 100 mM potassium acetate, 1 mM DTT and 2 μg/mL actinomycin D] and lysed by repeated passage through an 18 gauge needle (10 times). The cell lysate was placed in ice for 10 minutes and then centrifuged at 2400g for 10 minutes at 4° C. The supernatant (S1) was removed and the pellet (P1) was disrupted in 600 uL of Buffer B [10 mM TRIS acetate (pH 8.0), 10 mM potassium acetate and 1.5 mM MgCl2] supplemented with 1% Triton X-100 by repeated passage through an 18 gauge needle (10 times). The resuspended pellet was placed in ice for 10 minutes and then centrifuged at 2400g for 10 minutes at 4° C. The supernatant (S2) was removed and the pellet (P2) was disrupted in 600 uL of Buffer B supplemented with 0.5% deoxycholate and 0.1% Tween 40. The resuspended pellet was placed in ice for 10 minutes and then centrifuged at 2400g for 10 minutes at 4° C. The supernatant (S3) fraction, containing the enriched RSV RNP complexes, was collected and the protein concentration determined by UV absorbance at 280 nm. Aliquoted RSV RNP S3 fractions were stored at −80° C.
Transcription reactions contained 25 μg of crude RSV RNP complexes in 30 μL of reaction buffer [50 mM TRIS-acetate (pH 8.0), 120 mM potassium acetate, 5% glycerol, 4.5 mM MgCl2, 3 mM DTT, 2 mM ethyleneglycol-bis(2-aminoethylether)-tetraacetic acid (EGTA), 50 μg/mL BSA, 2.5 U RNasin (Promega), ATP, GTP, UTP, CTP and 1.5 uCi [α-^32P] NTP (3000 Ci/mmol)]. The radiolabeled nucleotide used in the transcription assay was selected to match the nucleotide analog being evaluated for inhibition of RSV RNP transcription. Cold, competitive NTP was added at a final concentration of one-half its Km (ATP=20 μM, GTP=12.5 μM, UTP=6 μM and CTP=2 μM). The three remaining nucleotides were added at a final concentration of 100 μM.
To determine whether nucleotide analogs inhibited RSV RNP transcription, compounds were added using a 6 step serial dilution in 5-fold increments. Following a 90 minute incubation at 30° C., the RNP reactions were stopped with 350 μL of Qiagen RLT lysis buffer and the RNA was purified using a Qiagen RNeasy 96 kit. Purified RNA was denatured in RNA sample loading buffer (Sigma) at 65° C. for 10 minutes and run on a 1.2% agarose/MOPS gel containing 2M formaldehyde. The agarose gel was dried and exposed to a Storm phosphorimager screen and developed using a Storm phosphorimager (GE Healthcare). The concentration of compound that reduced total radiolabeled transcripts by 50% (IC50) was calculated by non-linear regression analysis of two replicates.

RSV strain A2 = assay: Anti-RSV activity, infectious cytopathic cell protection assay in HEp-2 cells; type: cell-based, Respiratory Syncytial Virus (RSV); conditions: human respiratory syncytial virus
Procedure: Antiviral activity against RSV is determined using an infectious cytopathic cell protection assay in HEp-2 cells. In this assay, compounds inhibiting viral infection and/or replication produce a cytoprotective effect against the virus-induced cell killing that can be quantified using a cell viability reagent. The techniques used here are novel adaptations of methods described in published literature (Chapman et al., Antimicrob Agents Chemother. 2007, 51(9):3346-53.)
HEp-2 cells are obtained from ATCC (Manassas, VI) and maintained in MEM media supplemented with 10% fetal bovine serum and penicillin/streptomycin. Cells are passaged twice a week and kept at subconfluent stage. Commercial stock of RSV strain A2 (Advanced Biotechnologies, Columbia, Md.) is titered before compound testing to determine the appropriate dilution of the virus stock that generates desirable cytopathic effect in HEp-2 cells.
For antiviral tests, HEp-2 cells are grown in large cell culture flasks to near confluency but not fully so. The compounds to be tested are prediluted in DMSO in 384-well compound dilution plates, either in an 8 or 40 sample per plate standardized dose response format. 3-fold serial dilution increments of each test compound are prepared in the plates and test samples are transferred via acoustic transfer apparatus (Echo, Labcyte) at 100 nl per well into cell culture assay 384-well plates. Each compound dilution is transferred in single or quadruplicate samples into dry assay plates, which are stored until assay is ready to go. The positive and negative controls are laid out in opposite on ends of the plate in vertical blocks (1 column).
Subsequently, an infectious mixture is prepared using an appropriate dilution of virus stock previously determined by titration with cells at a density of 50,000/ml and 20 uL/well is added to test plates w/compounds via automation (uFlow, Biotek). Each plate includes negative and positive controls (16 replicates each) to create 0% and 100% virus inhibition standards, respectively. Following the infection with RSV, testing plates are incubated for 4 days in a 37° C. cell culture incubator. After the incubation, a cell viability reagent, Cell TiterGlo (Promega, Madison, Wis.) is added to the assay plates, which are incubated briefly, and a luminescent readout is measured (Envision, Perkin Elmer) in all the assay plates. The RSV-induced cytopathic effect, percentage inhibition, is determined from the levels of remaining cell viability. These numbers are calculated for each tested concentration relative to the 0% and 100% inhibition controls, and the EC50 value for each compound is determined by non-linear regression as a concentration inhibiting the RSV-induced cytopathic effect by 50%. Various potent anti-RSV tool compounds are used as positive controls for antiviral activity.

[2] = Cytotoxicity assay in HEp-2 cells; type: cell-based; conditions: human, uninfected HEp-2 cells, CellTiter Glo
Procedure: Cytotoxicity of tested compounds is determined in uninfected HEp-2 cells in parallel with the antiviral activity using the cell viability reagent in a similar fashion as described before for other cell types (Cihlar et al., Antimicrob Agents Chemother. 2008, 52(2):655-65.). The same protocol as for the determination of antiviral activity is used for the measurement of compound cytotoxicity except that the cells are not infected with RSV. Instead, an uninfected cell mixture at the same density is added at 20 ul/well to plates containing prediluted compounds, also at 100 nl/sample. Assay plates are then incubated for 4 days followed by a cell viability test using the same CellTiter Glo reagent addition and measurement of luminescent readouts. Untreated cell and cells treated at 2 uM puromycin (Sigma, St. Louis, Mo.) serve as 100% and 0% cell viability control, respectively. The percent of cell viability is calculated for each tested compound concentration relative to the 0% and 100% controls and the CC50 value is determined by non-linear regression as a compound concentration reducing the cell viability by 50%.

[3] = Cytotoxicity assay in MT-4 cells; type: cell-based; conditions: human, Cell-Titer Glo
Procedure: The MT-4 cell line was obtained from the NIH AIDS Research and Reference Reagent Program (Germantown, Md.) and cultured in RPMI-1640 medium (Irvine Scientific, Santa Ana, Calif., Cat #9160) supplemented with 10% FBS, 100 units/mL penicillin, 100 units/mL streptomycin, and 2 mM L-Glutamine. The MT-4 cells were passaged twice per week to maintain cell densities below 0.6×10^6 cells/mL. Complete RPMI-1640 media containing 100× concentrations of 3-fold serially diluted compound, ranging from 26 nM to 530 μM, were stamped in quadruplicate into black 384-well plates. After compound addition, 2×10^3 MT-4 cells were added to each well using a MicroFlo liquid dispenser (BioTek, Winooski, Vt.) and the cells were cultured for 5 days at 37° C. in a 5% CO2 incubator. Following the incubation the cells were allowed to equilibrate to 25° C. and cell viability was determined by adding 25 μL of Cell-Titer Glo viability reagent. The mixture was incubated for 10 minutes at 25° C., and the luminescence signal was quantified on a Victor Luminescence plate reader. The CC50 value is defined as the concentration of compound that reduces cell viability by 50% as determined by the Cell-Titer Glo signal. The data were analyzed using Pipeline Pilot Plate Data Analytics Collection software (Version 7.0, Accelrys, San Diego, Calif.). CC50 values were calculated from a non-linear regression analysis using a 4-parameter sigmoidal dose-response equation: Y=Bottom+(Top−Bottom)/(1+10^[(Log CC50−X)*HillSlope]) where the Top and Bottom were fixed at 100% and 0% cell viability, respectively. CC50 values were calculated as the average±standard deviation of 3 independent experiments.

[4] = 96 h, HEp-2 cells infected with RSV A2, 4 days, Cell TiterGlo, read-out: EC50
[5] = HEp-2 anti-RSV activity, read-out: EC50 (HEp-2 anti-RSV activity)

T1 sequence (P28887 whole entry): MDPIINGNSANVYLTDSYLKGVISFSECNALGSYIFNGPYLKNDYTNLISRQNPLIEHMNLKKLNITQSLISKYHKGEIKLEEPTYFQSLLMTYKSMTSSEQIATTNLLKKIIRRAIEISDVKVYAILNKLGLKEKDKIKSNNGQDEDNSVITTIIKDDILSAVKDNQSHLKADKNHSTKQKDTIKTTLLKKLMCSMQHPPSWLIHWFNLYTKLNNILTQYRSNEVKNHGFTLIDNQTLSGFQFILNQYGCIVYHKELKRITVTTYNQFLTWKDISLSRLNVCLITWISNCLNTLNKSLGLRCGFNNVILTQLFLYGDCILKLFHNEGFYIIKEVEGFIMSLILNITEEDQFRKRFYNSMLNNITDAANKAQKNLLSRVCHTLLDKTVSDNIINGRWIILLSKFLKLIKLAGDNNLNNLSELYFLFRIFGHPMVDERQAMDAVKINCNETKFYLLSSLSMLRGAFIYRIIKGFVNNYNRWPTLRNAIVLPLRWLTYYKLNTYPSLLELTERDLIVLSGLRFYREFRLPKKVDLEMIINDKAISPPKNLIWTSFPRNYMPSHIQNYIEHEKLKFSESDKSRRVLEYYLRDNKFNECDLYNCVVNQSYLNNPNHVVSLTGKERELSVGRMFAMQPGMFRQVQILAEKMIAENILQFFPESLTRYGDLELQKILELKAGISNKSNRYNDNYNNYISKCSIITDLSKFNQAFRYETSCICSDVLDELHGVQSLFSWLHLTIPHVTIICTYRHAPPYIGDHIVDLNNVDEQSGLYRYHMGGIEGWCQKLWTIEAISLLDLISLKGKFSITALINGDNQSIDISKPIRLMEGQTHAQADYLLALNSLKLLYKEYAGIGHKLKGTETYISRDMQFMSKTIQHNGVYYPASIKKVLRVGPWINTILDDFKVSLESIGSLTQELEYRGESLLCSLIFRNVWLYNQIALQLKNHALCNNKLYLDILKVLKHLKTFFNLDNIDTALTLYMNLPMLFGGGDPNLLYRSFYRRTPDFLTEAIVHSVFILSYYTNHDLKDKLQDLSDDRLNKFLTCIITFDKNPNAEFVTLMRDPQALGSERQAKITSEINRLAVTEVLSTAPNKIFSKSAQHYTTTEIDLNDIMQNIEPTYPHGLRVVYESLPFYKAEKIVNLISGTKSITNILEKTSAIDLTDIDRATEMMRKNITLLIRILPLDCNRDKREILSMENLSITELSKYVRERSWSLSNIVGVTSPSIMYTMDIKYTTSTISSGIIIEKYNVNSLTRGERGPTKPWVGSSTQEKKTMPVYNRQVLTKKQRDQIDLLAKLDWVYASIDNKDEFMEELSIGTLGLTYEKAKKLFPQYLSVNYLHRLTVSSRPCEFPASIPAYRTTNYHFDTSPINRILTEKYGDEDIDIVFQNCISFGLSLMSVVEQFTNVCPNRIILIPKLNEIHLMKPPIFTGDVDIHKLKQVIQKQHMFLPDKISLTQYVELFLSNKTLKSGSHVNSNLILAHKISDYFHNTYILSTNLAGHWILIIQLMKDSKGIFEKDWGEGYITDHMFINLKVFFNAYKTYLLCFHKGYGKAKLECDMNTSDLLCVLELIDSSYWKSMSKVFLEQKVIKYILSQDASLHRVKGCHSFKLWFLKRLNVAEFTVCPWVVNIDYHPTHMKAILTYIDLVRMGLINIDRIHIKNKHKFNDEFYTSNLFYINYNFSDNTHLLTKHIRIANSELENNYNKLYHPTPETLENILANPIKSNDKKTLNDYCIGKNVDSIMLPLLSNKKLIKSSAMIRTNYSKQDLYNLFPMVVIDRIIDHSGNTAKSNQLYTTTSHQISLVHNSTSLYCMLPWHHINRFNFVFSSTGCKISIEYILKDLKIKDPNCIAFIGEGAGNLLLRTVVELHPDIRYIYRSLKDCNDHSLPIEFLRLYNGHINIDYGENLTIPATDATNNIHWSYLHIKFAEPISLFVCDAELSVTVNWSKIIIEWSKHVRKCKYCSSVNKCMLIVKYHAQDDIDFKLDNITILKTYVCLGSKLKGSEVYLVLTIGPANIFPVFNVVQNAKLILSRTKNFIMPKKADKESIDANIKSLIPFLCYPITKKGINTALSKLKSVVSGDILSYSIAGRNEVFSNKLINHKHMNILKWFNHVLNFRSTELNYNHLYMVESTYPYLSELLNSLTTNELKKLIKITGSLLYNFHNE
T1 sequence (P03421 whole entry, further chain): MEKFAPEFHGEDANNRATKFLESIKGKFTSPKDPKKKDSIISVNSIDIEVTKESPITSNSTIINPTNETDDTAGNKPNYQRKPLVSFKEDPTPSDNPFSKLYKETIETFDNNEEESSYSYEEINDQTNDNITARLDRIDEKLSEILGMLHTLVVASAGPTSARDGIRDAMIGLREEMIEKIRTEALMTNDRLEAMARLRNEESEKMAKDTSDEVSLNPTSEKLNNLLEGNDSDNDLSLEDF

Row | EC50 (RSV strain A2; [4]) [µM] | EC50 (RSV strain A2; [5]) [µM] | SMILES | IC50 [1] [µM] | CC50 at 4 days [2] [µM] | CC50 at 5 days [3] [µM]
1 |  |  | N#C[C@]1(COP(=O)(O)OP(=O)(O)OP(=O)(O)O)O[C@@H](c2ccc3c(N)ncnn23)[C@H](O)[C@@H]1O [Example 8, ((2R,3S,4R,5S)-5-(4-aminopyrrolo[1,2-f][1,2,4]triazin-7-yl)-2-cyano-3,4-dihydroxytetrahydrofuran-2-yl)methyl tetrahydrogen triphosphate] | 0.025 |  | 
2 |  |  | [N-]=[N+]=N[C@]1(COP(=O)(O)OP(=O)(O)OP(=O)(O)O)O[C@@H](c2cc(F)c3c(N)ncnn23)[C@H](F)[C@@H]1O [Example 28, ((2R,3R,4R,5S)-5-(4-amino-5-fluoropyrrolo[2,1f-][1,2,4]triazin-7-yl)-2-azido-4-fluoro-3-hydroxytetrahydrofuran-2-yl)methyl tetrahydrogen triphosphate] | 0.086 |  | 
3 |  |  | C#C[C@]1(COP(=O)(O)OP(=O)(O)OP(=O)(O)O)O[C@@H](c2ccc3c(N)ncnn23)[C@H](F)[C@@H]1O [Example 7, ((2R,3R,4R,5S)-5-(4-aminopyrrolo[1,24][1,2,4]triazin-7-yl)-2-ethynyl-4-fluoro-3-hydroxytetrahydrofuran-2-yl)methyl tetrahydrogen triphosphate] | 1 |  | 
4 |  |  | N#C[C@]1(COP(=O)(O)OP(=O)(O)OP(=O)(O)O)O[C@@H](c2cc(F)c3c(N)ncnn23)[C@H](O)[C@@H]1O [Example 32, ((2R,3S,4R,5S)-5-(4-amino-5-fluoropyrrolo[2,1f-][1,2,4]triazin-7-yl)-2-cyano-3,4-dihydroxytetrahydrofuran-2-yl)methyl tetrahydrogen triphosphate] | 0.022 |  | 
5 |  |  | C[C@@]1(O)[C@H](O)[C@@H](COP(=O)(O)OP(=O)(O)OP(=O)(O)O)O[C@H]1c1ccc2c(N)ncnn12 [((2R,3R,4R,5S)-5-(4-aminopyrrolo[2,1-f][1,2,4]triazin-7-yl)-3,4-dihydroxy-4-methyltetrahydrofuran-2-yl)methyl tetrahydrogen triphosphate, reference compound] | 8.5 |  | 
6 |  |  | N#C[C@]1(COP(=O)(O)OP(=O)(O)OP(=O)(O)O)O[C@@H](c2ccc3c(N)ncnn23)[C@H](F)[C@@H]1O [Example 6, ((2R,3R,4R,5S)-5-(4-aminopyrrolo[1,2-f][1,2,4]triazin-7-yl)-2-cyano-4-fluoro-3-hydroxytetrahydrofuran-2-yl)methyl tetrahydrogen triphosphate] | 0.086 |  | 
7 | 40 | < 100 | CC[C@]1(CO)O[C@@H](c2ccc3c(N)ncnn23)[C@H](F)[C@@H]1O [Example 14, (2R,3R,4R,5S)-5-(4-aminopyrrolo[1,24][1,2,4]triazin-7-yl)-2-ethyl-4-fluoro-2-(hydroxymethyl)tetrahydrofuran-3-ol] |  | > 100 | > 106
8 | 9.2 |  | N#C[C@]1(CO)O[C@@H](c2cc(F)c3c(N)ncnn23)[C@H](O)[C@@H]1O [Example 25, (2R,3S,4R,5S)-5-(4-amino-5-fluoropyrrolo[2,1-f][1,2,4]triazin-7-yl)-3,4-dihydroxy-2-(hydroxymethyl)tetrahydrofuran-2-carbonitrile] |  | > 100 | > 93
9 | 0.4 | < 100 | [N-]=[N+]=N[C@]1(CO)O[C@@H](c2ccc3c(N)ncnn23)[C@H](F)[C@@H]1O [Example 19, (2R,3R,4R,5S)-5-(4-aminopyrrolo[2,1-f][1,2,4]triazin-7-yl)-2-azido-4-fluoro-2-(hydroxymethyl)tetrahydrofuran-3-ol] |  | > 44 | 16
10 | > 50 |  | C=C[C@]1(CO)O[C@@H](c2ccc3c(N)ncnn23)[C@H](O)[C@@H]1O [Example 20, (2R,3S,4R,5S)-5-(4-aminopyrrolo[2,1-f][1,2,4]triazin-7-yl)-2-(hydroxymethyl)-2-vinyltetrahydrofuran-3,4-diol] |  | > 50 | > 53
